Reference: patent US20140213513A1 (Sanofi, priority 2012, published 2014)
Converted amounts (≈) assume the structure as drawn. Like-named read-outs stand apart in the source and are kept apart here. *1 amine or outer side, *2 acyl side, *3 side chain or, on linkers, in order; H or OH if unused. Where a SMILES comes first, the peptide text is derived from it. Side-chain parts run from the residue outwards. [ ]: non-standard residue; d: D form. The star is where a group is joined. γGlu = O=C(O)[C@H](CCC(=O)[*:2])N[*:1]; Palmitoyl = CCCCCCCCCCCCCCCC(=O)*; Aib = CC(C)(N)C(=O)O

What was measured:
[1] = target: T1, human GLP-1 receptor (hGLP-1 R) (Homo sapiens, UniProt P43220); assay: cAMP response of HEK-293 cells stably expressing human GLP-1 receptor (HTRF); assay type: cell-based; settings: Table 7; cAMP formation
T1 construct: expressed in transfected cells
T1 sequence (P43220 24-463): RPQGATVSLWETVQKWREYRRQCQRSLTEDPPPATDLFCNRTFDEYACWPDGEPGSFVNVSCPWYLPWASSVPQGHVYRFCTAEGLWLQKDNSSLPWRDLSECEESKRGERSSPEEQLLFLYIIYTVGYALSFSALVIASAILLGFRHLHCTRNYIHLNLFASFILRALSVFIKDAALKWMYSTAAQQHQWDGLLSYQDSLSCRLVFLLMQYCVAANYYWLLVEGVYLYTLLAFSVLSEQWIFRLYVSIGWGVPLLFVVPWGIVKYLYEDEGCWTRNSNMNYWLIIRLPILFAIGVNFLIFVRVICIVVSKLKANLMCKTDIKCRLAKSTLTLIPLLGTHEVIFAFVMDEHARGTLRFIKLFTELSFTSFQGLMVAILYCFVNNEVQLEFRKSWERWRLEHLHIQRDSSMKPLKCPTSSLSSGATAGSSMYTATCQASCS
Summary of the method: (§1)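 HEK-293 cells stably expressing the receptor were resuspended at 400000 cells/ml in HBSS/20 mM HEPES/0.1% BSA buffer with 2 mM IBMX. Cells were stimulated with compound for 30 min at room temperature. Intracellular cAMP was measured by HTRF.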

[2] = target: T2, human GIP receptor (hGIP R) (Homo sapiens, UniProt P48546); assay: cAMP response of HEK-293 cells stably expressing human GIP receptor (HTRF); assay type: cell-based; settings: Table 7; cAMP formation
T2 construct: expressed in transfected cells
T2 sequence (P48546 22-466): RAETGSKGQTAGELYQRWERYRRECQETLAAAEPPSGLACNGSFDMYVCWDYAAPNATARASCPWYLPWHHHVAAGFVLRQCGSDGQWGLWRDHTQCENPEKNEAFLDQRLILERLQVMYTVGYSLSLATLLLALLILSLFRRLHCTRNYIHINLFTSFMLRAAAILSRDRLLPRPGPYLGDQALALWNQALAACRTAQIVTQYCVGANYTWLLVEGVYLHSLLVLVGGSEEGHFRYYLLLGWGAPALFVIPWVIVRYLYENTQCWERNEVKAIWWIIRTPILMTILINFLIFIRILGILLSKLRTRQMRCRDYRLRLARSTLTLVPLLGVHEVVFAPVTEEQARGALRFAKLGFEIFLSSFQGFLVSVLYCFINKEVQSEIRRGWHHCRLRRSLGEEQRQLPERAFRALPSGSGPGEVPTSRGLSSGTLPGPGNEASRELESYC
Summary of the method: as §1

[3] = target: T3, human glucagon receptor (hGLUC R) (Homo sapiens, UniProt P47871); assay: cAMP response of HEK-293 cells stably expressing human glucagon receptor (HTRF); assay type: cell-based; settings: Table 7; cAMP formation
T3 construct: expressed in transfected cells
T3 sequence (P47871 26-477): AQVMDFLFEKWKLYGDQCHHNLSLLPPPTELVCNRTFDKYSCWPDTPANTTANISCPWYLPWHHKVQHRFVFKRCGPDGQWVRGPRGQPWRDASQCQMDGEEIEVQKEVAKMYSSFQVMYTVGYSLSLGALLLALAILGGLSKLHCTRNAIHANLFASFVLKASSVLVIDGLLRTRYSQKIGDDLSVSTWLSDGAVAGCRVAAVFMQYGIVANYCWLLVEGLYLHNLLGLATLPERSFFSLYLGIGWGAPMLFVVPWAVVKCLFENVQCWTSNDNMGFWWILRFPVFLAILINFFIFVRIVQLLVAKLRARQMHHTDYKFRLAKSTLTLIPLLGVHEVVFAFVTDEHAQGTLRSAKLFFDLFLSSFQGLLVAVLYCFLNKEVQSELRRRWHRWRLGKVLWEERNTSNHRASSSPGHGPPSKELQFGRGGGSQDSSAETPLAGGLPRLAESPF
Summary of the method: as §1

[4] = Solubility testing in buffer (HPLC-UV of supernatant); assay type: physicochemical
[5] = target: T4, human GIP receptor (human) (UniProt P48546); assay: cell-based or functional assay
T4 sequence (looked up): T2 sequence (P48546 22-466)

[6] = target: human GLP-1 receptor (human) (UniProt P43220); assay: cell-based or functional assay
Chain of human GLP-1 receptor (human) (P43220 24-463): as the sequence (P43220 24-463) above

[7] = Pharmacokinetic testing in mice (plasma LC/MS); assay type: in vivo; settings: mouse, sc, 1 mg/kg s.c.
Method: Mice were dosed 1 mg/kg subcutaneously (s.c.).
Pharmacokinetic profiles were determined as described in Methods.

[8] = pH 4.5, target concentration 1.0 mg/mL, read-out: Solubility (pH 4.5)
[9] = pH 7.4, target concentration 1.0 mg/mL, read-out: Solubility (pH 7.4)

Molecule: CCCCCCCCCCCCCCCC(=O)N[C@@H](CCC(=O)NCCCC[C@H](NC(=O)[C@H](CCC(N)=O)NC(=O)[C@H](CCCCN)NC(=O)[C@H](CO)NC(=O)[C@H](CC(C)C)NC(=O)[C@H](CC(=O)O)NC(=O)[C@H](CO)NC(=O)[C@@H](NC(=O)[C@H](Cc1ccccc1)NC(=O)[C@@H](NC(=O)CNC(=O)[C@H](CCC(=O)O)NC(=O)C(C)(C)NC(=O)[C@@H](N)Cc1ccc(O)cc1)[C@@H](C)O)[C@@H](C)O)C(=O)N[C@@H](CCC(=O)O)C(=O)N[C@@H](CCCCN)C(=O)N[C@@H](CCC(=O)O)C(=O)N[C@@H](C)C(=O)N[C@@H](C)C(=O)NC(C)(C)C(=O)N[C@@H](CCC(=O)O)C(=O)N[C@@H](Cc1ccccc1)C(=O)N[C@H](C(=O)N[C@@H](CCC(=O)O)C(=O)N[C@@H](Cc1c[nH]c2ccccc12)C(=O)N[C@@H](CC(C)C)C(=O)N[C@@H](CCCCN)C(=O)N[C@@H](C)C(=O)NCC(=O)NCC(=O)N1CCC[C@H]1C(=O)N[C@@H](CO)C(=O)N[C@@H](CO)C(=O)NCC(=O)N[C@@H](C)C(=O)N1CCC[C@H]1C(=O)N1CCC[C@H]1C(=O)N1CCC[C@H]1C(=O)N[C@@H](CO)C(N)=O)[C@@H](C)CC)C(=O)O [SEQ ID NO: 17, Y-Aib-E-G-T-F-T-S-D-L-S-K-Q-K(yE-x53)-E-K-E-A-A-Aib-E-F-I-E-W-L-K-A-G-G-P-S-S-G-A-P-P-P-S-NH2] (H-Y[Aib]EGTFTSDLSKQK([γGlu-Palmitoyl])EKEAA[Aib]EFIEWLKAGGPSSGAPPPS-NH2)
- EC50 [1]: 5.2 pM
- EC50 [2]: 8.3 pM
- EC50 [3]: 21000 pM
- solubility at 2 h [4, 8]: > 1000 µg/mL
- solubility at 2 h [4, 9]: > 1000 µg/mL

Molecule: CCCCCCCCCCCCCCCC(=O)N[C@@H](CCC(=O)NCCCC[C@H](NC(=O)[C@H](CCC(N)=O)NC(=O)[C@H](CCCCN)NC(=O)[C@H](CO)NC(=O)[C@H](CC(C)C)NC(=O)[C@H](CC(=O)O)NC(=O)[C@H](CO)NC(=O)[C@@H](NC(=O)[C@H](Cc1ccccc1)NC(=O)[C@@H](NC(=O)CNC(=O)[C@H](CCC(N)=O)NC(=O)C(C)(C)NC(=O)[C@@H](N)Cc1ccc(O)cc1)[C@@H](C)O)[C@@H](C)O)C(=O)N[C@@H](CCC(=O)O)C(=O)N[C@@H](CO)C(=O)N[C@@H](CCCCN)C(=O)N[C@@H](C)C(=O)N[C@@H](C)C(=O)N[C@@H](CCC(N)=O)C(=O)N[C@@H](CCC(=O)O)C(=O)N[C@@H](Cc1ccccc1)C(=O)N[C@H](C(=O)N[C@@H](CCC(=O)O)C(=O)N[C@@H](Cc1c[nH]c2ccccc12)C(=O)N[C@@H](CC(C)C)C(=O)N[C@@H](CCCCN)C(=O)N[C@@H](C)C(=O)NCC(=O)NCC(=O)N1CCC[C@H]1C(=O)N[C@@H](CO)C(=O)N[C@@H](CO)C(=O)NCC(=O)N[C@@H](C)C(=O)N1CCC[C@H]1C(=O)N1CCC[C@H]1C(=O)N1CCC[C@H]1C(=O)N[C@@H](CO)C(N)=O)[C@@H](C)CC)C(=O)O [SEQ ID NO: 40, Y-Aib-Q-G-T-F-T-S-D-L-S-K-Q-K(yE-x53)-ESKAAQEFIEWLKAGGPSSGAPPPS-NH2] (H-Y[Aib]QGTFTSDLSKQK([γGlu-Palmitoyl])ESKAAQEFIEWLKAGGPSSGAPPPS-NH2)
- EC50 [1]: 5.5 pM
- EC50 [2]: 53.6 pM
- EC50 [3]: 22.6 pM
- solubility at 2 h [4, 8]: 986 µg/mL (≈ 220 µM)
- solubility at 2 h [4, 9]: 993 µg/mL (≈ 222 µM)

Molecule: Tyr(1)Ile(12)-exendin-4 (peptide)
- EC50 hGIP R [5]: 93.9 pM
- EC50 hGLP-1 R [6]: 1.3 pM

Molecule: CCCCCCCCCCCCCCCC(=O)N[C@@H](CCC(=O)NCCCC[C@H](NC(=O)[C@H](CCC(N)=O)NC(=O)[C@@H](NC(=O)[C@H](CO)NC(=O)[C@H](CC(C)C)NC(=O)[C@H](CC(=O)O)NC(=O)[C@H](CO)NC(=O)[C@@H](NC(=O)[C@H](Cc1ccccc1)NC(=O)[C@@H](NC(=O)CNC(=O)[C@H](CCC(N)=O)NC(=O)C(C)(C)NC(=O)[C@@H](N)Cc1ccc(O)cc1)[C@@H](C)O)[C@@H](C)O)[C@@H](C)CC)C(=O)N[C@@H](CCC(=O)O)C(=O)N[C@@H](CCCCN)C(=O)N[C@@H](CCCNC(=N)N)C(=O)N[C@@H](C)C(=O)N[C@@H](C)C(=O)NC(C)(C)C(=O)N[C@@H](CCC(=O)O)C(=O)N[C@@H](Cc1ccccc1)C(=O)N[C@H](C(=O)N[C@@H](CCC(=O)O)C(=O)N[C@@H](Cc1c[nH]c2ccccc12)C(=O)N[C@@H](CC(C)C)C(=O)N[C@@H](CCCCN)C(=O)N[C@@H](C)C(=O)N[C@H](C)C(=O)NCC(=O)N1CCC[C@H]1C(=O)N[C@@H](CO)C(=O)N[C@@H](CO)C(=O)NCC(=O)N[C@@H](C)C(=O)N1CCC[C@H]1C(=O)N1CCC[C@H]1C(=O)N1CCC[C@H]1C(=O)N[C@@H](CO)C(N)=O)[C@@H](C)CC)C(=O)O [SEQ ID NO: 14, Y-Aib-Q-G-T-F-T-S-D-L-S-I-Q-K(yE-x53)-E-K-R-A-A-Aib-E-F-I-E-W-L-K-A-dAla-G-P-S-S-G-A-P-P-P-S-N H2]
- EC50 [1]: 6.5 pM
- EC50 [2]: 6.2 pM
- EC50 [3]: 62.3 pM
- solubility at 2 h [4, 8]: 1020 µg/mL (≈ 227 µM)
- solubility at 2 h [4, 9]: > 1000 µg/mL
- Cmax [7]: 5570 ng/mL
- half-life [7]: 2.2 h
